In this experiment the target is T1, microsomal h-COX2 (Homo sapiens, UniProt P35354).
T1 construct: made in house; host or cells: baculovirus infected SF9 cells (microsomal preparation)
T1 sequence (P35354 18-604): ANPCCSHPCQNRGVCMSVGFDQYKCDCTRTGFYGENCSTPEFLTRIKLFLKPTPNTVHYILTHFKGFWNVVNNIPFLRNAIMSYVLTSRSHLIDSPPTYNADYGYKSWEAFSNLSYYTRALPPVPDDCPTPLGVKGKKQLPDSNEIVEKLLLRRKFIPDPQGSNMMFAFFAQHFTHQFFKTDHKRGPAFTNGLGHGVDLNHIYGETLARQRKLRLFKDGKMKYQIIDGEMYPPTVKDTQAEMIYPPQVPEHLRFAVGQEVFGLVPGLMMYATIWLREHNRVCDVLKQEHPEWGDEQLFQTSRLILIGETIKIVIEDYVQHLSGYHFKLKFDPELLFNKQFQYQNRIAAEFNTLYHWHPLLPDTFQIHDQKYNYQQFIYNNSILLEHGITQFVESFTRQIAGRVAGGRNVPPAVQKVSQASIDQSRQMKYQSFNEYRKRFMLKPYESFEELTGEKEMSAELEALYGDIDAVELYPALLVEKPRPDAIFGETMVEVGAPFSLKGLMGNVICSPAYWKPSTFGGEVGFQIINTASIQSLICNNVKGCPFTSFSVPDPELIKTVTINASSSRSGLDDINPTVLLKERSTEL
In words: Microsomal assay: inhibitory activity against microsomal h-COX2. The note with it: microsomal preparation from baculovirus infected SF9 cells; 1 hour incubation with compound; 0.1 μM arachidonic acid, 10 minutes; PGE2 by EIA; read-out: IC50 values for inhibition of COX-2. In kind it is biochemical. The protocol: Biological Data Microsomal Assay
Inhibitory activity against microsomal h-COX2 was assessed against a microsomal preparation from baculovirus infected SF9 cells. An aliquot of microsomal preparation was thawed slowly on ice and a 1/40,000 dilution prepared from it into the assay buffer (sterile water, degassed with argon containing 100 mM HEPES (pH 7.4), 10 mM EDTA (pH7.4), 1 mM phenol, 1 mM reduced glutathione, 20 mg/ml gelatin and 0.001 mM Hematin). Once diluted the enzyme solution was then sonicated for 5 seconds (Branson sonicator, setting 4, 1 cm tip) to ensure a homogeneous suspension. 155 μl enzyme solution was then added to each well of a 96-well microtitre plate containing either 5 μl test compound (40× required test concentration) or 5 μl DMSO for controls. Plates were then mixed and incubated at room temperature for 1 hour. Following the incubation period, 40 μl of 0.5 μM arachidonic acid was added to each well to give a final concentration of 0.1 μM. Plates were then mixed and incubated for exactly 10 minutes (room temperature) prior to addition of 25 μl 1M HCl (hydrochloric acid) to each well to stop the reaction. 25 μl of 1M NaOH (sodium hydroxide) was then added to each well to neutralise the solution prior to determination of PGE2 levels by enzyme immunoassay (EIA).

As a reminder, the IC50 is the point on the concentration scale where inhibition reaches its midpoint.

Turning to `Cc1cc(NCc2ccc(Cl)cc2)nc(-c2ccc(S(C)(=O)=O)cc2)c1` [Example 4], the IC50 was not above 500 nM.

For the compound `Cc1ncccc1Oc1cc(C(F)(F)F)cc(-c2ccc(S(C)(=O)=O)cc2)n1` [Example 165], the half-inhibitory concentration (IC50) was not above 500 nM. Take `CS(=O)(=O)c1ccc(-c2cc(C(F)(F)F)cc(OCc3ccc(Br)cn3)n2)cc1` [Example 200]: the IC50 was not above 500 nM.

On to `CCn1ncnc1CNc1cc(C)cc(-c2ccc(S(C)(=O)=O)cc2)n1` [Example 234, N-[(1-ethyl-1H-1,2,4-triazol-5-yl)methyl]-4-methyl-6-[4-(methylsulfonyl)phenyl]pyridine-2-amine], for which the IC50 was not above 500 nM. The figure for `Cc1cnc(CNc2cc(C(F)(F)F)cc(-c3ccc(S(C)(=O)=O)cc3)n2)cn1` [Example 51] is not above 500 nM; for `Cn1cc(CNc2cc(C(F)(F)F)cc(-c3ccc(S(C)(=O)=O)cc3)n2)cn1` [Example 171] it is not above 500 nM. As to `Cc1cc(NCc2ncc[nH]2)nc(-c2ccc(S(C)(=O)=O)cc2)c1` [Example 76], the IC50 was not above 500 nM. The figure for `Cc1nn(C)cc1CNc1cc(C(F)(F)F)cc(-c2ccc(S(C)(=O)=O)cc2)n1` [Example 187] is not above 500 nM; for `Cc1ccc(Nc2cc(C(F)(F)F)cc(-c3ccc(S(C)(=O)=O)cc3)n2)cn1` [Example 163] it is not above 500 nM. The figure for `Cc1cc(Nc2ccc(C)nc2)nc(-c2ccc(S(C)(=O)=O)cc2)c1` [Example 56] is not above 500 nM; for `CCn1ccnc1CNc1cc(C)cc(-c2ccc(S(C)(=O)=O)cc2)n1` [Example 112] it is not above 500 nM. Under `Cc1csc(CNc2cc(C(F)(F)F)cc(-c3ccc(S(C)(=O)=O)cc3)n2)n1` [Example 189] stands not above 500 nM; under `COc1ccc(Nc2cc(C)cc(-c3ccc(S(C)(=O)=O)cc3)n2)cc1` [Example 9], not above 500 nM.

As to `Cc1ccc(COc2nc(-c3ccc(S(C)(=O)=O)cc3)cc(C)c2C#N)cn1` [Example 149], the IC50 was not above 500 nM. Under `CCOc1ccc(CNc2cc(C)cc(-c3ccc(S(C)(=O)=O)cc3)n2)cc1` [Example 30] stands not above 500 nM; under `CCCCNc1cc(C)cc(-c2ccc(S(C)(=O)=O)cc2)n1` [Example 23], not above 500 nM. Under `COc1ccc(CNc2cc(C)cc(-c3ccc(S(C)(=O)=O)cc3)n2)cc1` [Example 20] stands not above 500 nM. The figure for `CCc1cc(OCc2ccnn2C)nc(-c2ccc(S(C)(=O)=O)cc2)c1` [Example 116] is not above 500 nM; for `Cc1cc(Oc2cccnc2)nc(-c2ccc(S(C)(=O)=O)cc2)c1` [Example 11] it is not above 500 nM; for `CS(=O)(=O)c1ccc(-c2cc(C(F)(F)F)cc(NC3CCC3)n2)cc1` [Example 212] it is not above 500 nM. As for `CCc1cc(NCc2nccn2C)nc(-c2ccc(S(C)(=O)=O)cc2)c1` [Example 108], the IC50 is not above 500 nM.

With `Cc1cc(-c2ccc(S(C)(=O)=O)cc2)nc(N(C)Cc2ccccc2)c1C` [Example 58], the IC50 is not above 500 nM. Under `Cc1ccc(Oc2cc(C(F)(F)F)cc(-c3ccc(S(C)(=O)=O)cc3)n2)c(C)n1` [Example 183] stands not above 500 nM.

Take `Cc1cc(NCc2csnc2C)nc(-c2ccc(S(C)(=O)=O)cc2)c1` [Example 125]: the IC50 is not above 500 nM.

Turning to `Cc1cc(NC2CCCC2)nc(-c2ccc(S(C)(=O)=O)cc2)c1` [Example 1, N-Cyclopentyl-4-methyl-6-[4-(methylsulfonyl)phenyl]pyridine-2-amine], the IC50 is not above 500 nM. The figure for `CCc1cc(NCc2ncnn2C)nc(-c2ccc(S(C)(=O)=O)cc2)c1` [Example 233] is not above 500 nM; for `Cc1cc(NCc2c[nH]nc2C)nc(-c2ccc(S(C)(=O)=O)cc2)c1` [Example 81] it is not above 500 nM; for `CS(=O)(=O)c1ccc(-c2cc(C(F)(F)F)cc(Oc3cncc(Cl)c3)n2)cc1` [Example 190] it is not above 500 nM. The figure for `CCc1cc(NCc2ccc(C)cc2)nc(-c2ccc(S(C)(=O)=O)cc2)c1` [Example 129] is not above 500 nM; for `Cc1cccc(Nc2cc(C(F)(F)F)cc(-c3ccc(S(C)(=O)=O)cc3)n2)n1` [Example 162] it is not above 500 nM. Under `Cc1cc(NCc2cnn(CF)c2)nc(-c2ccc(S(C)(=O)=O)cc2)c1` [Example 126] stands not above 500 nM; under `CCc1cc(OCc2ccc(C)nc2)nc(-c2ccc(S(C)(=O)=O)cc2)c1` [Example 134], not above 500 nM.

Turning to `Cc1cc(NCc2cnn(C)c2)nc(-c2ccc(S(C)(=O)=O)cc2)c1` [Example 83, N-[(1-methyl-1H-pyrazol-4-yl)methyl]-4-methyl-6-[4-(methylsulfonyl)phenyl]pyridine-2-amine], the IC50 was not above 500 nM. On to `Cc1cc(N[C@@H](C)c2ccccc2)nc(-c2ccc(S(C)(=O)=O)cc2)c1` [Example 94], for which the IC50 was not above 500 nM. The figure for `CS(=O)(=O)c1ccc(-c2cccc(NCc3ccccc3)n2)cc1` [Example 75] is not above 500 nM; for `CCc1cc(NCc2nccn2CC)nc(-c2ccc(S(C)(=O)=O)cc2)c1` [Example 204] it is not above 500 nM; for `Cc1ccc(-c2ccc(S(C)(=O)=O)cc2)nc1NCc1ccccc1` [Example 57] it is not above 500 nM. In the case of `Cc1cc(-c2ccc(S(C)(=O)=O)cc2)nc(N(C)Cc2cccc(C)n2)c1` [Example 68], the IC50 is not above 500 nM. As for `CCc1cc(NCc2cccs2)nc(-c2ccc(S(C)(=O)=O)cc2)c1` [Example 120], the IC50 was not above 500 nM.

`Cc1cc(NCc2nccn2C)nc(-c2ccc(S(C)(=O)=O)cc2)c1` [Example 80]: the IC50 is not above 500 nM. The figure for `Cc1ccccc1CNc1cc(C(F)(F)F)cc(-c2ccc(S(C)(=O)=O)cc2)n1` [Example 49] is not above 500 nM; for `CCc1cc(NCC2CCOCC2)nc(-c2ccc(S(C)(=O)=O)cc2)c1` [Example 46] it is not above 500 nM. The figure for `Cc1ccc(CNc2cc(C)cc(-c3ccc(S(C)(=O)=O)cc3)n2)cc1` [Example 25] is not above 500 nM; for `CCn1ncnc1CNc1cc(C(F)(F)F)cc(-c2ccc(S(C)(=O)=O)cc2)n1` [Example 235] it is not above 500 nM; for `CS(=O)(=O)c1ccc(-c2cc(C(F)(F)F)cc(OCc3ccncc3Br)n2)cc1` [Example 201] it is not above 500 nM. The figure for `Cc1cc(-c2ccc(S(C)(=O)=O)cn2)nc(N(C)Cc2ccccc2)c1` [Example 62] is not above 500 nM; for `Cc1cc(NCc2ccccc2)nc(-c2ccc(S(C)(=O)=O)c(F)c2)c1` [Example 67] it is not above 500 nM. With `Cc1cc(OCc2ccc(C)nc2)nc(-c2ccc(S(C)(=O)=O)cc2)c1` [Example 158], the IC50 is not above 500 nM. The figure for `Cc1cc(NCc2ccncc2)nc(-c2ccc(S(C)(=O)=O)cc2)c1` [Example 27] is not above 500 nM.

Take `CS(=O)(=O)c1ccc(-c2cc(C(F)(F)F)cc(NCC3CCCCC3)n2)cc1` [Example 8]: the IC50 is not above 500 nM.

With `CS(=O)(=O)c1ccc(-c2cc(C(F)(F)F)cc(Nc3ccc(Cl)nn3)n2)cc1` [Example 191], the IC50 is not above 500 nM. Under `CCc1cc(NCc2cnn(CF)c2)nc(-c2ccc(S(C)(=O)=O)cc2)c1` [Example 144] stands not above 500 nM; under `Cc1cc(NCc2ccco2)nc(-c2ccc(S(C)(=O)=O)cc2)c1` [Example 24], not above 500 nM.

For `CS(=O)(=O)c1ccc(-c2cc(C(F)(F)F)cc(NCc3ccccc3Cl)n2)cc1` [Example 50], the IC50 is not above 500 nM.

With `CS(=O)(=O)c1ccc(-c2cc(C(F)(F)F)cc(NCC3CCCC3)n2)cc1` [Example 219, N-(cyclopentanemethyl)-4-(trifluoromethyl)-6-[4-(methylsulfonyl)phenyl]pyridine-2-amine], the IC50 was not above 500 nM. The figure for `CS(=O)(=O)c1ccc(-c2cc(CF)cc(NC3CCCCC3)n2)cc1` [Example 92] is not above 500 nM; for `Cc1cc(OCc2ccnn2C)nc(-c2ccc(S(C)(=O)=O)cc2)c1` [Example 86] it is not above 500 nM.

`COc1ccc(CNc2cc(C(F)(F)F)cc(-c3ccc(S(C)(=O)=O)cc3)n2)cc1` [Example 55]: the IC50 was not above 500 nM. For `Cc1cc(NCc2cn(C)nc2C)nc(-c2ccc(S(C)(=O)=O)cc2)c1` [Example 113], the IC50 is not above 500 nM. As to `CS(=O)(=O)c1ccc(-c2cc(C(F)(F)F)cc(NCC3CCOCC3)n2)cc1` [Example 175], the IC50 is not above 500 nM.

The values above are taken from US7446117B2, “Cox-2 inhibiting pyridine derivatives” (Glaxo Group Limited, priority 2002, dated 2008).
